Data: article PMC11157491, “Novel Alaninamide Derivatives with Drug-like Potential for Development as Antiseizure and Antinociceptive Therapies—In Vitro and In Vivo Characterization” (ACS Chemical Neuroscience, 2024)

Experiments:
Assay type in all cases: in vivo
[1] = test system: glutamate and GABA concentrations in the hippocampus and cortex; assay: Glutamate and GABA concentrations in hippocampus and cortex of PTZ-kindled mice (LC-MS/MS)
From the text: After completion of behavioral tests, animals were sacrificed and the brains were collected for the analysis of glutamate and GABA concentrations in the hippocampus and cortex. No changes in glutamate and GABA concentrations were reported in the hippocampus (Figure 4A). However, statistically significant differences in the concentration of both glutamate and GABA (Figure 4B) were found in the cortex. The FST procedure increased cortical glutamate concentrations in this brain structure as compared to naive mice (p < 0.05), whereas PTZ-induced kindling caused a ∼30% decrease in glutamate concentrations in comparison to the nonkindled control group exposed to the FST test (p < 0.0001).
Concentrations of GABA and glutamate in the mouse prefrontal cortex and hippocampus were measured by the liquid chromatography-tandem mass spectrometry (LC-MS/MS) method. Standards of both analytes were purchased from Toronto Research Chemicals Inc. (Toronto, ON, Canada). The stock standard solutions of GABA and glutamate were prepared in methanol and deionized water, respectively, and stored at 4 °C. A series of solution mixtures of desired concentrations were prepared by suitable dilutions of the stock solutions. Before analysis, murine brains were homogenized in distilled water at the ratio of 50 μL/mg using a handheld pestle and a glass tube homogenizer (Potter–Elvehjem PTFE pestle and glass tube, Sigma-Aldrich). Homogenates were centrifuged at 8000g for 10 min at 4 °C, and the supernatant was diluted 10 times with 0.1% formic acid in MeCN. After addition of isotope-labeled GABA-d6 and glutamate-d5 (Toronto Research Chemicals Inc., Toronto, ON, Canada) as internal standards (10 μL at a concentration of 500 ng/mL), samples (10 μL) were deproteinized with 80 μL of 0.1% formic acid in MeCN by shaking for 10 min (IKA Vibrax VXR, Germany) and then centrifuged for 5 min at a speed of 8000g (Eppendorf miniSpin centrifuge). The obtained supernatants were transferred into the autosampler vials. Chromatographic separation was carried out on an XBridge HILIC analytical column (2.1 × 150 mm^2, 3.5 μm, Waters, Ireland) with the oven temperature set at 25 °C using the Excion LC AC HPLC system. The autosampler temperature was maintained at 15 °C, and a sample volume of 2 μL was injected into the LC-MS/MS system. […] The tandem mass spectrometer was operated at unit resolution in the selected reaction monitoring mode (SRM), monitoring the transition of the protonated molecular ions m/z 104–87 and m/z 104–69 for GABA and m/z 148–84 and m/z 148–102 for glutamate (the first pair was used as a quantifier and the second for the identity verification—qualifier). For isotope-labeled GABA-d6 and glutamate-d5 monitored pairs were m/z 110–93 and m/z 153–88, respectively. […]

mice = assay: Spontaneous locomotor activity; details: all tested doses, i.p. 30 min before
Experimental: We aimed to test the influence of the test compound on spontaneous locomotor activity to investigate its sedative properties. The strong sedative activity of new compounds is considered an undesirable property, which may lead to an incorrect or ambiguous interpretation of the in vivo results.
Figure S3. […] The test compound or […]
vehicle (1% Tween 80 solution) were administered 30 min i.p. before the 30-min long evaluation of locomotor activity. The results are presented as bar plots showing the mean ± SEM. The statistical significance was evaluated by one-way ANOVA followed by Dunnett’s post hoc test: * p < 0.05, *** p < 0.001, n = 8–10 mice per […]
(1 picture or pasted object on this page, not shown here)

PTZ-kindled mice = assay: Behavioral tests in PTZ-kindled mice (locomotor activity, elevated plus maze, forced swim test)
Experimental: As compared to the nonkindled control group, there were no changes in locomotor activity, as well as anxiety- and depressive-like behavior in the PTZ-kindled control group.
The procedure was performed as described in detail in our earlier studies.[15],[65] […] The seizure severity was scored using the modified Racine’s scale. […] 24 h after the last PTZ injection, animals were subjected to the locomotor activity test, the elevated plus maze test, and the forced swim test according to the methods described in detail elsewhere. After behavioral tests, animals were sacrificed and the brains were rapidly removed. Hippocampi and cortices were dissected, frozen, and stored at −80 °C until the assay of determination of GABA and glutamate concentration.
Figure S1. Acute effects of compound 26 (A) and 28 (B) on grip strength in mice. Both compounds were administered i.p. at a dose of 50 mg/kg, 30 min before the test. Control animals received vehicle. Data are presented as means ± SEM of grip strength expressed in mN/g of body weight (n = 10animals). The statistical significance was evaluated by a Student's t test (GraphPad Prism 8). […]
entries in the elevated plus maze test; (B) the percentage of the time spent in the open arms in the elevated plus maze test; (C) spontaneous locomotor activity; (D) total immobility duration in the forced swim test in mice subjected to the PTZ kindling procedure. PTZ (40 mg/kg, i.p.) was given three times a week, 30 min after […]
Behavioral tests were performed 24 h after the last PTZ injection. Data are shown as means ± SEM (n = 10–15 animals). The statistical significance was evaluated by one-way ANOVA followed by the Tukey’s post hoc test: *p < 0.05, (GraphPad Prism 8). […]

In the case of `CC(=O)NC(C)C(=O)N1CCN(c2cccc(OC(F)(F)F)c2)CC1` (centres unmarked) [Compound 28, N-(1-oxo-1-(4-(3-(Trifluoromethoxy)phenyl)piperazin-1-yl)propan-2-yl)acetamide], the “GABA concentrations in the cortex” value ([1]; PTZ-kindled animals vs PTZ-kindled control) was “did not affect GABA concentrations”, the “cortical glutamate concentration (PTZ-kindling-induced decrease)” value ([1]; cortex, 28 at 40 mg/kg, VPA 150 mg/kg) was “reversed this effect” and the spontaneous locomotor activity (mice) was “decreased spontaneous locomotor activity”. For the same compound, the “decrease of total immobility duration in the forced swim test” value (PTZ-kindled mice; 10 and 20 mg/kg, vs PTZ-kindled control) was roughly 10% and the “locomotor activity and anxiety-related behavior” value (PTZ-kindled mice; repeated administration) was “did not affect”.
